Experimental data taken from patent US20250163056A1, “NONMUSCLE MYOSIN II INHIBITORS” (The University of Florida Research Foundation, Inc., priority 2018, published 2025).
pKi: −log10 of the molar value.

Key:
Bovine cardiac myosin = Bovine cardiac myosin (Bos taurus (Bovine), UniProt Q9BE39); test: Cardiac muscle myosin II actin-activated ATPase assay (NADH-coupled); format: biochemical; design: key to Ratio CMMII:NMII Ki/EC50: NMII-sel: no Ki value for cardiac myosin II could be determined; the compounds had no detectable inhibitory properties versus the cardiac myosin II; conditions: for pKi: 300 nM cardiac myosin, 10 μM actin, 25° C., read-out: CMMII KI; for Ratio CMMII:NMII Ki/EC50: cardiac myosin II Ki over nonmuscle myosin II EC50
Description: (§1) The cardiac muscle myosin II actin-activated ATPase assay is a biochemical assay. Specifically, it is an NADH (nicotinamide adenine dinucleotide)-coupled ATPase assay that relies on NADH fluorescence as a readout. Cardiac myosin is a mechanochemical energy transducer that hydrolyzes ATP to generate force in the presence of its activator, F-actin. The resulting ADP is regenerated to ATP by pyruvate kinase (PK) that transforms one molecule of phosphoenolpyruvate (PEP) to pyruvate in parallel. Subsequently, pyruvate is reduced to lactate by lactate dehydrogenase (LDH) that, in turn, oxidizes one molecule of NADH to NAD. Therefore, the decrease in NADH concentration as a function of time equals the ATP hydrolysis rate. Bovine cardiac myosin is obtained from a commercial source, Cytoskeleton. PK, LDH, ATP, PEP, and NADH are obtained from Sigma. F-actin is prepared in house from Rabbit Muscle Acetone Powder. The assay is run at 25° C. in 384 well black-wall polystyrene microplates with a total volume of 20 μl per well. NADH fluorescence is monitored for 30 minutes with an EnVision Multimode Plate Reader. The slope of the fluorescence response, which is proportional to the reaction rate, is determined by simple linear regression. Final assay conditions are 300 nM cardiac myosin, 10 μM actin, 40 U/ml LDH, 200 U/ml PK, 220 μM NADH, 1 mM PEP, 1 mM ATP in a buffer containing 10 mM 3-(N-morpholino)propanesulfonic acid (pH=7.0), 2 mM MgCl2, 0.15 mM ethylene glycol-bis(p-aminoethyl ether)-N,N,N′,N′-tetraacetic acid, 0.1 mg/mL bovine serum albumin, 0.5% (V/V) dimethyl sulfoxide (DMSO) and 1 mM dithiothreitol. Prior to testing the inhibitory activity of the compounds, a two-fold dilution series starting at 10 mM compound concentration is prepared in DMSO. Subsequently, 100 nl is transferred to each well of the measuring plate containing a mixture of myosin, LDH and PK. The enzymatic reaction is started with the addition of a mixture containing ATP, PEP, NADH and actin. The highest final compound concentration is 50 uM. 20 μM para-aminoblebbistatin in 0.5% DMSO serves as the positive control and 0.5% DMSO alone is the negative control. Reaction rates are determined by using the fluorescence responses of a dilution series of NADH included in all plates and plotted as a function of inhibitor concentration. All measurements are carried out in triplicate. Inhibitory constants are determined by fitting the 16 point dose-response data to a quadratic equation corresponding to a simple one-to-one binding model.

[1] = Photostability, percentage remaining undegraded under illumination or in the dark; conditions: for Photostability 4 hours: percentage remaining undegraded after 4 hours illumination; for Photostability 24 hours: percentage remaining undegraded after 24 hours illumination; for Photostability Dark (24 h): percentage remaining undegraded in the dark
Rabbit skeletal myosin = test: Skeletal muscle myosin II actin-activated ATPase assay; format: biochemical; conditions: 20 nM skeletal muscle myosin II; read-out: SKMMII KI
Description: as §1
The skeletal muscle myosin II actin-activated ATPase assay is performed the same as for cardiac muscle myosin II with the following exceptions: Rabbit skeletal myosin is obtained from Cytoskeleton and the final assay conditions contain 20 nM skeletal muscle myosin II.

Bovine cardiac myosin, sequence (Q9BE39 whole entry): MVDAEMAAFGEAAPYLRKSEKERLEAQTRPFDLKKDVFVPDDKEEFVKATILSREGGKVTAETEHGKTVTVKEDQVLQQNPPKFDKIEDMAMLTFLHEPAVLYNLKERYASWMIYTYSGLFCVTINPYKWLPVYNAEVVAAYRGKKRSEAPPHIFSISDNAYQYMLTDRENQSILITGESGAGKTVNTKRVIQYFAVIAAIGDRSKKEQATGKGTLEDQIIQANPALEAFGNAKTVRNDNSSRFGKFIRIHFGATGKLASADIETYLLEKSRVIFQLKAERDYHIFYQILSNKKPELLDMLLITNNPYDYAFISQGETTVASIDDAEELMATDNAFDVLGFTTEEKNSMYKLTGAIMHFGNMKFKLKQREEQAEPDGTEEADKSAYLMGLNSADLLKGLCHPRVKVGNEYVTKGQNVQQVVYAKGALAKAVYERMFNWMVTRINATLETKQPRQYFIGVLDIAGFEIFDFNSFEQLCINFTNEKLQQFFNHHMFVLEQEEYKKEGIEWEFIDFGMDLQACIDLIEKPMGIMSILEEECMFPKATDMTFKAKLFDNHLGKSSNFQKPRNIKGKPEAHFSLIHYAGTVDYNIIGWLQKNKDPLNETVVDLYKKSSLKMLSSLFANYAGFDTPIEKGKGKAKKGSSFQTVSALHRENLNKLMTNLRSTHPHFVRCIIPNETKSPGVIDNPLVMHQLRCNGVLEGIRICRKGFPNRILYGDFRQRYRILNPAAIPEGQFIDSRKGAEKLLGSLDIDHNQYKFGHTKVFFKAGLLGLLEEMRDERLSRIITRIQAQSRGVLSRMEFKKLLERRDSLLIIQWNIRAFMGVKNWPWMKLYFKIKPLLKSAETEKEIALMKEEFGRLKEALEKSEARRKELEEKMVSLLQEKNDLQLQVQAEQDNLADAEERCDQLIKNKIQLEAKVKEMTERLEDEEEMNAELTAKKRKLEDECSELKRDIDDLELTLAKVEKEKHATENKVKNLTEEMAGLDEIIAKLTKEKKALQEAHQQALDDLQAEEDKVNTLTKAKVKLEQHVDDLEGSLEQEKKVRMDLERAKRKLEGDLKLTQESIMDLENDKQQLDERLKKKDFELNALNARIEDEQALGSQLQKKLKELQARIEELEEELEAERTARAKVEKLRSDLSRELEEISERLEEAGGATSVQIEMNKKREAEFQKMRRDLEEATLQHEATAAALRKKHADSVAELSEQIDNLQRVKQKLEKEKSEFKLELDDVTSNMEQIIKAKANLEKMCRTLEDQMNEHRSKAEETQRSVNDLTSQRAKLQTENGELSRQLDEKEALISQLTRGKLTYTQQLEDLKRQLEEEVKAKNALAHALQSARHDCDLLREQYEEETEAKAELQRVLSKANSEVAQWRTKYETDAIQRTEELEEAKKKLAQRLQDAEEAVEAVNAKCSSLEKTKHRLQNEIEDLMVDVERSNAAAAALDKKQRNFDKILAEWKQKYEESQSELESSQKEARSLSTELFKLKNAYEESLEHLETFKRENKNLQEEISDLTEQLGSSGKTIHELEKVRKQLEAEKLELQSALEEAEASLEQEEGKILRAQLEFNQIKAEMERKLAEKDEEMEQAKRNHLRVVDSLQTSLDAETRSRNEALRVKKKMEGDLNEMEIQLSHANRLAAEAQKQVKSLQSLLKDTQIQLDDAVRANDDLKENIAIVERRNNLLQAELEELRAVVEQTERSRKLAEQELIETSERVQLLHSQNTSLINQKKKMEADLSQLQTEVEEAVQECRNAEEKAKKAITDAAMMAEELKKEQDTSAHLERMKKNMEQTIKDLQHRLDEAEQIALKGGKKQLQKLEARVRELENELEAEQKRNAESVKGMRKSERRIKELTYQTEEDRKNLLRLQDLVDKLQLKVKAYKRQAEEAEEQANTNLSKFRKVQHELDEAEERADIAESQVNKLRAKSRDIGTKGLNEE
Bovine cardiac myosin, sequence (P85100 whole entry partner): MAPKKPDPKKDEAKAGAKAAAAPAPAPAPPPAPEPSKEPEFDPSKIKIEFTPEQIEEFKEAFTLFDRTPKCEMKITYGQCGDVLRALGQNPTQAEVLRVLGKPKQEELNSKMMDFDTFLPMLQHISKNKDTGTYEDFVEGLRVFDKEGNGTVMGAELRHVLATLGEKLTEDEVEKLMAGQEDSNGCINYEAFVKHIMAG
Bovine cardiac myosin, sequence (Q3SZE5 whole entry partner): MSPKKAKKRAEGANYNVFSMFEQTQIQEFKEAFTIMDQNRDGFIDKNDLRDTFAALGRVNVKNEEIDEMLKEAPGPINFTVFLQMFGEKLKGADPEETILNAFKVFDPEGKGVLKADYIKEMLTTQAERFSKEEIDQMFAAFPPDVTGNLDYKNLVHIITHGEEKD

Row | SMILES | pKi (Bovine cardiac myosin) | Ratio CMMII:NMII Ki/EC50 (Bovine cardiac myosin) | Photostability 4 hours [1] | Photostability 24 hours [1] | Photostability Dark (24 h) [1] | pKi (Rabbit skeletal myosin)
1 | Cc1ccc2c(c1)C(=O)[C@]1(O)CCN(c3ccc4c(c3)OCCN4)C1=N2 [BPN-0027412] | 4.68 | 3.6 | 90.8% | 67.7% | 95.5% | 5.57
2 | Cc1ccc(N2CC[C@@]3(O)C(=O)c4cc(C)c(C(F)(F)F)cc4N=C23)cc1 [BPN-0026819] | 4.30 | 27.8 | 96.6% | 84.8% | 97.3% | 5.77
3 | Cc1cc2c(cc1C(F)(F)F)N=C1N(c3ccc4ccoc4c3)CC[C@@]1(O)C2=O [BPN-0027108] |  | NMII-sel | >99% | 97.0% | >99% | 5.00
4 | Cc1cc2c(s1)C(=O)[C@]1(O)CCN(c3ccc(C#N)c(C)c3)C1=N2 [BPN-0027072] | 4.51 | 3.1 | >99% | >99% | >99% | 5.30
5 | Cc1cc(N2CC[C@@]3(O)C(=O)c4cc(C(F)(F)F)ccc4N=C23)on1 [BPN-0027237] | 4.30 | 4.5 | 79.8% | 15.8% | 82.7% | 5.17
6 | Cc1cc2c(cc1C)C(=O)[C@]1(O)CCN(c3ccc4nnccc4c3)C1=N2 [BPN-0027241] | 4.00 | 7.7 | 91.6% | 87.0% | 97.4% | 5.14
7 | Cc1cc2c(s1)C(=O)[C@]1(O)CCN(c3ccc(C#N)c(Cl)c3)C1=N2 [BPN-0027162] | 4.28 | 6.6 | 98.5% | 95.9% | >99% | 5.35
8 | Cc1ccc2c(c1)C(=O)[C@]1(O)CCN(c3ccc4c(C)noc4c3)C1=N2 [BPN-0027374] |  | NMII-sel | 96.9% | 86.4% | >99% | 6.09
9 | O=C1c2cc(Cl)c(Cl)cc2N=C2N(c3ccccc3)CC[C@@]12O [BPN-0026643] | 4.77 | 3.5 | 64.0% | <1% | 85.1% | 5.72
10 | Cc1cc2c(cc1C)C(=O)[C@]1(O)CCN(c3cnc(C)c(C)c3)C1=N2 [BPN-0028694] | 4.80 | 8.4 | 55.3% | 11.2% | 98.0% | 5.77
11 | Cc1cc2c(cc1C)C(=O)[C@]1(O)CCN(c3ccc4ncsc4c3)C1=N2 [BPN-0027122] | 4.35 | 26.5 | 69.5% | 5.3% | 97.1% | 5.23
12 | Cc1ccc(N2CC[C@@]3(O)C(=O)c4cc(C)c(C)cc4N=C23)cc1 [BPN-0026663] | 5.55 | 3.5 | 40.7% | 2.0% | 97.3% | 6.92
13 | Cc1cc2c(cc1C)C(=O)[C@]1(O)CCN(c3ccc4nnsc4c3)C1=N2 [BPN-0028550] | 4.15 | 7.5 | 92.7% | 77.6% | 89.4% | 5.03
14 | Cc1cc2c(cc1C)C(=O)[C@]1(O)CCN(c3cnc(C)c(C)c3)C1=N2 [BPN-0028731] | 4.40 | 7.7 | 37.6% | 7.4% | >99% | 5.66
15 | O=C1c2cc(Cl)ccc2N=C2N(c3ccc4ccsc4c3)CC[C@@]12O [BPN-0026545] |  | NMII-sel | 89.4% | 5.1% | >99% | 4.92
16 | Cc1cc2c(cc1C)C(=O)[C@]1(O)CCN(c3ccc4scnc4c3)C1=N2 [BPN-0027121] | 4.72 | 7.6 | 75.6% | 6.5% | 98.6% | 5.57
17 | O=C1c2cc(C(F)(F)F)ccc2N=C2N(c3ccc(Cl)cc3)CC[C@@]12O [BPN-0026544] |  | NMII-sel | 51.1% | 10.8% | 93.7% | 5.32
18 | Cc1cc2c(cc1C)C(=O)[C@]1(O)CCN(c3cccc(Cl)c3)C1=N2 [BPN-0026500] |  | NMII-sel | 92.2% | 22.8% | >99% | 4.64
19 | Cc1cc2c(s1)N=C1N(c3ccc4ncccc4c3)CC[C@@]1(O)C2=O [BPN-0027216] | 4.51 | 11.5 | 97.2% | 85.0% | >99% | 5.34
20 | COc1cccc(N2CC[C@@]3(O)C(=O)c4cc(F)c(C)cc4N=C23)c1 [BPN-0026618] | 4.74 | 3.8 | 92.3% | 17.2% | 96.6% | 5.23
21 | Cc1cc(N2CC[C@@]3(O)C(=O)c4cc(Cl)ccc4N=C23)ccc1C#N [BPN-0026457] |  | NMII-sel | 98.6% | 77.1% | >99% | 4.82
22 | CCc1cc2c(s1)N=C1N(c3ccc(Cl)cc3)CC[C@@]1(O)C2=O [BPN-0026770] |  | NMII-sel | >99% | 92.9% | >99% | 5.82
23 | Cc1cc(C)c2c(c1)N=C1N(c3ccc4ncccc4c3)CC[C@@]1(O)C2=O [BPN-0028697] | 4.22 | 7.5 | 88.4% | 25.4% | 97.3% | 5.72
24 | COc1ccc(N2CC[C@@]3(O)C(=O)c4cc(F)c(C)cc4N=C23)cc1 [BPN-0026605] | 4.82 | 15.0 | 69.6% | 2.3% | 94.2% | 6.54
25 | Cc1ccc2c(c1)C(=O)[C@]1(O)CCN(c3ccc4nsnc4c3)C1=N2 [BPN-0027394] | 4.85 | 3.4 | 92.2% | 57.2% | 98.7% | 5.96
26 | COc1ccc(N2CC[C@@]3(O)C(=O)c4cc(C)c(C)cc4N=C23)cc1 [BPN-0026665] | 5.38 | 6.7 | 2.7% | <1% | 97.4% | 6.85
27 | Cc1cc2c(cc1C)C(=O)[C@]1(O)CCN(c3ccc4c(c3)CCCC4)C1=N2 [BPN-0028923] | 4.52 | 8.6 | 77.5% | 1% | 98.1% | 5.22
28 | CCc1cc2c(s1)N=C1N(c3ccc4ccoc4c3)CC[C@@]1(O)C2=O [BPN-0026749] |  | NMII-sel | 87.8% | <5% | >99% | 4.64
